The source of these data is patent US20260137820A1, “TRIFUNCTIONAL COMPOUND AND USE THEREOF” (PEKING UNIVERSITY, priority 2022, published 2026).

The subject of one experiment is HT-1080-FAP cells. The experiment in a line: Determination of IC50 in cell experiment (competition with ^68Ga-FAPI-04). In kind it is cell-based. The note with it: Homo sapiens; vs 0.75 nM ^68Ga-FAPI-04, 37° C., 1 hour. Here is the method:
Cell model: A human fibrosarcoma cell line (HT-1080-FAP) with high FAP expression was constructed by transfection of an FAP plasmid into a human fibrosarcoma cell line (HT-1080) by WuXi Biologics (China).
HT-1080-FAP cells were inoculated into a 24-well plate 24 hours in advance, with the density being about 30% (calculated and estimated), 10^5 cells (countable) per well. 0.5 mL of a complete medium was added. The medium was changed to a serum-free medium. 12 groups of FAPI-CB-01 solutions with a concentration gradient of 0-5000 nM were set up, with internal replicates n=4 for each group. […] 0.75 nM ^68Ga-FAPI-04 was added to each well, followed by incubation at 37° C. for 1 hour. After washing twice with cold PBS and lysis, the radioactivity count was measured.

The next experiment has as its system FAP, DPP-4 and PREP. Description: Binding selectivity to homologous proteins (competitive inhibition of enzyme substrate, IC50). Format: biochemical. The note with it: from IC50 values, pNA release. As to the method:
Taking FAP target as an example, homologous proteins thereof include, but are not limited to, DPP-4 and PREP. The structural similarity thereof may lead to a decreased binding selectivity of the modified precursor molecules for the homologous proteins, resulting in an increased uptake in non-target organs.
The binding selectivity for homologous proteins was determined by a competitive inhibition experiment on the substrate of the enzymes, and the binding/inhibition selectivity thereof is indirectly evaluated by the median inhibitory concentration (IC50) values obtained.
By reference to the method described in Extended Structure-Activity Relationship and Pharmacokinetic Investigation of (4-Quinolinoyl)glycyl-2-cyanopyrrolidine Inhibitors of Fibroblast Activation Protein (FAP). Journal of Medicinal Chemistry 57, 3053-3074 (2014), published by Jansen et al., the initial rate of p-nitroaniline (pNA) released from the substrate (absorption at 405 nm) was measured by using a microplate reader (PerkinElmer, Victor™ X5) at 37° C. in a final volume of 200 μL to determine the kinetic properties of the enzyme activity. […]
The determination method for IC50 on FAP is as follows: the substrate Z-Gly-Pro-p-nitroanilide (50 μM, Cat #G-58468, HEOWNS) was used to measure FAP activity at pH 7.4. […] The mixture was then incubated at 37° C. for 6 hours, and the release of pNA was then measured. […]

A word on the IC50: it is the concentration that gives 50% inhibition. Read a high IC50 as lower potency. In the experiment with HT-1080-FAP cells, `N#C[C@@H]1CC(F)(F)CN1C(=O)CNC(=O)c1ccnc2ccc(OCCCN3CCN(C(=O)[C@H](CCCCNC(=O)c4ccc(OS(=O)(=O)F)cc4)NC(=O)CN4CCN(CC(=O)O)CCN(CC(=O)O)CCN(CC(=O)O)CC4)CC3)cc12` [FAPI-CB-01] had an IC50 of 11.6 ± 0.32 nM. Besides, the “selectivity to FAP protein over homologous proteins DPP-4 and PREP” value with FAP, DPP-4 and PREP is recorded as “high selectivity”.
